#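 At the GI50, growth is halved. The concentration for full growth arrest is given as TGI.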
# Columns and labels:
# Test in all cases: growth of human tumour cells (NCI), 384-well format
# NCI-H226 lung = system: NCI-H226 lung
# EKVX NSCLC = system: EKVX NSCLC
# BT-549 breast = system: BT-549 breast
# NCI-H460 NSCLC = system: NCI-H460 NSCLC
# NCI-H23 lung = system: NCI-H23 lung
# HCC-2998 colon = system: HCC-2998 colon
# SR leukemia = system: SR leukemia
# A549 NSCLC = system: A549 NSCLC
# HOP-62 NSCLC = system: HOP-62 NSCLC
# TK-10 renal = system: TK-10 renal
# SNB-75 CNS = system: SNB-75 CNS
# LOX IMVI melanoma = system: LOX IMVI melanoma
# MDA-MB-435 melanoma = system: MDA-MB-435 melanoma
# UACC-62 melanoma = system: UACC-62 melanoma
# UACC-257 melanoma = system: UACC-257 melanoma
# OVCAR-3 ovarian = system: OVCAR-3 ovarian
# SK-OV-3 ovarian = system: SK-OV-3 ovarian
# NCI/ADR-RES ovarian = system: NCI/ADR-RES ovarian
# OVCAR-4 ovarian = system: OVCAR-4 ovarian
# NCI-H522 lung = system: NCI-H522 lung
# OVCAR-5 ovarian = system: OVCAR-5 ovarian
# SNB-19 CNS = system: SNB-19 CNS
# T-47D breast = system: T-47D breast
# HL-60(TB) leukemia = system: HL-60(TB) leukemia
# MOLT-4 leukemia = system: MOLT-4 leukemia
# MALME-3M melanoma = system: MALME-3M melanoma
# HOP-92 NSCLC = system: HOP-92 NSCLC
# SK-MEL-28 melanoma = system: SK-MEL-28 melanoma
# HCT-15 colon = system: HCT-15 colon
# CAKI-1 renal = system: CAKI-1 renal
# 786-0 renal = system: 786-0 renal
# SK-MEL-2 melanoma = system: SK-MEL-2 melanoma
# K-562 leukemia = system: K-562 leukemia
# RXF 393 renal = system: RXF 393 renal
# CCRF-CEM leukemia = system: CCRF-CEM leukemia
# MCF7 breast = system: MCF7 breast
# SW-620 colon = system: SW-620 colon
# HT29 colon = system: HT29 colon
# DU-145 prostate = system: DU-145 prostate
# SF-295 CNS = system: SF-295 CNS
# HS 578T breast = system: HS 578T breast
# OVCAR-8 ovarian = system: OVCAR-8 ovarian
# U251 glioblastoma = system: U251 glioblastoma
# UO-31 renal = system: UO-31 renal
# MDA-MB-468 breast = system: MDA-MB-468 breast
# RPMI-8226 leukemia = system: RPMI-8226 leukemia
# SN12C renal = system: SN12C renal
structure (smiles),measurement,setting,value
Cn1cc(-c2ccc3c(c2)CCN3C(=O)Cc2cccc(C(F)(F)F)c2)c2c(N)ncnc21,GI50,NCI-H226 lung,3.82 µM
same,TGI,NCI-H226 lung,18.1 µM
same,GI50,EKVX NSCLC,3.03 µM
same,TGI,EKVX NSCLC,16.2 µM
same,GI50,BT-549 breast,5 µM
same,TGI,BT-549 breast,17.6 µM
same,GI50,NCI-H460 NSCLC,3.9 µM
same,TGI,NCI-H460 NSCLC,16.5 µM
same,GI50,NCI-H23 lung,4.28 µM
same,TGI,NCI-H23 lung,15.9 µM
same,GI50,HCC-2998 colon,15.5 µM
same,TGI,HCC-2998 colon,29.6 µM
same,GI50,SR leukemia,1.47 µM
same,TGI,SR leukemia,3.54 µM
same,GI50,A549 NSCLC,6.71 µM
same,TGI,A549 NSCLC,> 61.4 µM
same,GI50,HOP-62 NSCLC,10.8 µM
same,TGI,HOP-62 NSCLC,30.3 µM
same,GI50,TK-10 renal,7.63 µM
same,TGI,TK-10 renal,26.1 µM
same,GI50,SNB-75 CNS,3.52 µM
same,TGI,SNB-75 CNS,14.2 µM
same,GI50,LOX IMVI melanoma,5.67 µM
same,TGI,LOX IMVI melanoma,18.2 µM
same,GI50,MDA-MB-435 melanoma,8.32 µM
same,TGI,MDA-MB-435 melanoma,29.8 µM
same,GI50,UACC-62 melanoma,5.44 µM
same,TGI,UACC-62 melanoma,17.9 µM
same,GI50,UACC-257 melanoma,9.73 µM
same,TGI,UACC-257 melanoma,31 µM
same,GI50,OVCAR-3 ovarian,8.44 µM
same,TGI,OVCAR-3 ovarian,21.6 µM
same,GI50,SK-OV-3 ovarian,1.63 µM
same,TGI,SK-OV-3 ovarian,11.4 µM
same,GI50,NCI/ADR-RES ovarian,5.14 µM
same,TGI,NCI/ADR-RES ovarian,19.7 µM
same,GI50,OVCAR-4 ovarian,11.2 µM
same,TGI,OVCAR-4 ovarian,25.1 µM
same,GI50,NCI-H522 lung,8.97 µM
same,TGI,NCI-H522 lung,21.5 µM
same,GI50,OVCAR-5 ovarian,15.4 µM
same,TGI,OVCAR-5 ovarian,29 µM
same,GI50,SNB-19 CNS,15.3 µM
same,TGI,SNB-19 CNS,42.9 µM
same,GI50,T-47D breast,2.91 µM
same,TGI,T-47D breast,9.03 µM
same,GI50,HL-60(TB) leukemia,2.21 µM
same,TGI,HL-60(TB) leukemia,6.42 µM
same,GI50,MOLT-4 leukemia,2.15 µM
same,TGI,MOLT-4 leukemia,5.04 µM
same,GI50,MALME-3M melanoma,2.99 µM
same,TGI,MALME-3M melanoma,13.7 µM
same,GI50,HOP-92 NSCLC,3.52 µM
same,TGI,HOP-92 NSCLC,13.3 µM
same,GI50,SK-MEL-28 melanoma,12.5 µM
same,TGI,SK-MEL-28 melanoma,37.3 µM
same,GI50,HCT-15 colon,2.69 µM
same,TGI,HCT-15 colon,17.6 µM
same,GI50,CAKI-1 renal,2.14 µM
same,TGI,CAKI-1 renal,12.8 µM
same,GI50,786-0 renal,3.99 µM
same,TGI,786-0 renal,16.2 µM
same,GI50,SK-MEL-2 melanoma,2.71 µM
same,TGI,SK-MEL-2 melanoma,12.4 µM
same,GI50,K-562 leukemia,2.55 µM
same,TGI,K-562 leukemia,11.4 µM
same,GI50,RXF 393 renal,1.82 µM
same,TGI,RXF 393 renal,8.86 µM
same,GI50,CCRF-CEM leukemia,2.75 µM
same,TGI,CCRF-CEM leukemia,7.98 µM
same,GI50,MCF7 breast,5.82 µM
same,TGI,MCF7 breast,20.3 µM
same,GI50,SW-620 colon,10.6 µM
same,TGI,SW-620 colon,22.9 µM
same,GI50,HT29 colon,6.6 µM
same,TGI,HT29 colon,19.6 µM
same,GI50,DU-145 prostate,4.16 µM
same,TGI,DU-145 prostate,22.3 µM
same,GI50,SF-295 CNS,6.87 µM
same,TGI,SF-295 CNS,20.5 µM
same,GI50,HS 578T breast,1.7 µM
same,TGI,HS 578T breast,7.47 µM
same,GI50,OVCAR-8 ovarian,5.73 µM
same,TGI,OVCAR-8 ovarian,54.7 µM
same,GI50,U251 glioblastoma,9.54 µM
same,TGI,U251 glioblastoma,39.4 µM
same,GI50,UO-31 renal,6.72 µM
same,TGI,UO-31 renal,28.4 µM
same,GI50,MDA-MB-468 breast,2.86 µM
same,TGI,MDA-MB-468 breast,10.7 µM
same,GI50,RPMI-8226 leukemia,4.44 µM
same,TGI,RPMI-8226 leukemia,16 µM
same,GI50,SN12C renal,1.36 µM
same,TGI,SN12C renal,8.59 µM

# From PubChem BioAssay (NCI)
